Laboratory results taken from BindingDB's records for doi:10.1021/jm00020a029 (Merck Research Laboratories, 1995).
Where a SMILES comes first, the peptide text is derived from it. [ ]: non-standard residue; d: D form. Phe(3,4-Cl2) = N[C@@H](Cc1ccc(Cl)c(Cl)c1)C(=O)O; Phe(4-CH2NH2) = NCc1ccc(C[C@H](N)C(=O)O)cc1; Phe(4-F) = N[C@@H](Cc1ccc(F)cc1)C(=O)O; 2Nal = N[C@@H](Cc1ccc2ccccc2c1)C(=O)O; NMeR = CN[C@@H](CCCNC(=N)N)C(=O)O; Cha = N[C@@H](CC1CCCCC1)C(=O)O; Phg = N[C@H](C(=O)O)c1ccccc1

Assay: Evaluated for the activation of human thrombin receptor measured by platelet aggregation

SMILES | EC50 [µM]
CC(C)C[C@H](NC(=O)[C@H](CC(C)C)N(C)C(=O)[C@H](Cc1ccccc1)NC(=O)[C@@H](N)CO)C(=O)N[C@@H](CCCNC(=N)N)C(N)=O [(S)-2-{[(S)-2-((S)-2-Amino-3-hydroxy-propionylamino)-3-phenyl-propionyl]-methyl-amino}-4-methyl-pentanoic acid [(S)-1-((S)-1-carbamoyl-4-guanidino-butylcarbamoyl)-3-methyl-butyl]-amide] | 350
CC(C)C[C@H](NC(=O)[C@H](CC(C)C)NC(=O)[C@H](CC1CCCCC1)NC(=O)[C@H](C)N)C(=O)N[C@@H](CCCNC(=N)N)C(N)=O [(S)-2-[(S)-2-((S)-2-Amino-propionylamino)-3-cyclohexyl-propionylamino]-4-methyl-pentanoic acid [(S)-1-((S)-1-carbamoyl-4-guanidino-butylcarbamoyl)-3-methyl-butyl]-amide] (H-A[Cha]LLR-NH2) | 28
CC(C)C[C@H](NC(=O)[C@H](Cc1ccccc1)NC(=O)[C@H](C)N)C(=O)N[C@@H](CC(C)C)C(=O)N(C)[C@@H](CCCNC(=N)N)C(N)=O [(S)-2-{(S)-2-[(S)-2-((S)-2-Amino-propionylamino)-3-phenyl-propionylamino]-4-methyl-pentanoylamino}-4-methyl-pentanoic acid ((S)-1-carbamoyl-4-guanidino-butyl)-methyl-amide] (H-AFLL[NMeR]-NH2) | 800
CC(C)C[C@H](NC(=O)[C@H](Cc1ccc(F)cc1)NC(=O)[C@H](C)N)C(=O)N[C@@H](CCCNC(=N)N)C(=O)N[C@@H](CCCNC(=N)N)C(N)=O [(S)-2-[(S)-2-((S)-2-Amino-propionylamino)-3-(4-fluoro-phenyl)-propionylamino]-4-methyl-pentanoic acid [(S)-1-((S)-1-carbamoyl-4-guanidino-butylcarbamoyl)-4-guanidino-butyl]-amide] (H-A[Phe(4-F)]LRR-NH2) | 40
CC(C)C[C@H](NC(=O)[C@H](Cc1ccccc1)NC(=O)[C@@H](N)CO)C(=O)N[C@H](CC(C)C)C(=O)N[C@@H](CCCNC(=N)N)C(N)=O [(S)-2-[(S)-2-((S)-2-Amino-3-hydroxy-propionylamino)-3-phenyl-propionylamino]-4-methyl-pentanoic acid [(R)-1-((S)-1-carbamoyl-4-guanidino-butylcarbamoyl)-3-methyl-butyl]-amide] | 500
CC(C)C[C@H](NC(=O)[C@H](CC(C)C)NC(=O)[C@H](Cc1ccccc1)NC(=O)[C@H](N)CO)C(=O)N[C@@H](CCCNC(=N)N)C(N)=O [(S)-2-[(S)-2-((R)-2-Amino-3-hydroxy-propionylamino)-3-phenyl-propionylamino]-4-methyl-pentanoic acid [(S)-1-((S)-1-carbamoyl-4-guanidino-butylcarbamoyl)-3-methyl-butyl]-amide] | 800
CC(C)C[C@H](NC(=O)[C@H](CC(C)C)NC(=O)[C@H](Cc1ccccc1)NC(=O)[C@@H](N)CO)C(N)=O [(S)-2-{(S)-2-[(S)-2-((S)-2-Amino-3-hydroxy-propionylamino)-3-phenyl-propionylamino]-4-methyl-pentanoylamino}-4-methyl-pentanoic acid amide] (H-SFLL-NH2) | 185
CC(C)C[C@H](NC(=O)[C@H](CC(C)C)NC(=O)[C@H](Cc1ccccc1)N(C)C(=O)[C@@H](N)CO)C(=O)N[C@@H](CCCNC(=N)N)C(N)=O [(S)-2-{(S)-2-[((S)-2-Amino-3-hydroxy-propionyl)-methyl-amino]-3-phenyl-propionylamino}-4-methyl-pentanoic acid [(S)-1-((S)-1-carbamoyl-4-guanidino-butylcarbamoyl)-3-methyl-butyl]-amide] | > 800
CC(C)C[C@H](NC(=O)[C@H](Cc1ccccc1)NC(=O)[C@@H](N)CO)C(=O)N[C@@H](CC(C)C)C(=O)N[C@H](CCCNC(=N)N)C(N)=O [(S)-2-[(S)-2-((S)-2-Amino-3-hydroxy-propionylamino)-3-phenyl-propionylamino]-4-methyl-pentanoic acid [(S)-1-((R)-1-carbamoyl-4-guanidino-butylcarbamoyl)-3-methyl-butyl]-amide] | 109
CC(C)C[C@H](NC(=O)[C@@H](CC(C)C)NC(=O)[C@H](Cc1ccccc1)NC(=O)[C@@H](N)CO)C(=O)N[C@@H](CCCNC(=N)N)C(N)=O [(R)-2-[(S)-2-((S)-2-Amino-3-hydroxy-propionylamino)-3-phenyl-propionylamino]-4-methyl-pentanoic acid [(S)-1-((S)-1-carbamoyl-4-guanidino-butylcarbamoyl)-3-methyl-butyl]-amide] | > 800
CC(C)C[C@H](NC(=O)[C@H](CC(C)C)NC(=O)[C@H](Cc1ccc(CN)cc1)NC(=O)[C@H](C)N)C(=O)N[C@@H](CCCNC(=N)N)C(N)=O [(S)-2-[(S)-3-(4-Aminomethyl-phenyl)-2-((S)-2-amino-propionylamino)-propionylamino]-4-methyl-pentanoic acid [(S)-1-((S)-1-carbamoyl-4-guanidino-butylcarbamoyl)-3-methyl-butyl]-amide] (H-A[Phe(4-CH2NH2)]LLR-NH2) | 800
CC(C)C[C@H](NC(=O)[C@H](C)NC(=O)[C@@H](N)CO)C(=O)N[C@@H](CC(C)C)C(=O)N[C@@H](CCCNC(=N)N)C(N)=O [(S)-2-[(S)-2-((S)-2-Amino-3-hydroxy-propionylamino)-propionylamino]-4-methyl-pentanoic acid [(S)-1-((S)-1-carbamoyl-4-guanidino-butylcarbamoyl)-3-methyl-butyl]-amide] (H-SALLR-NH2) | > 800
CC(C)C[C@H](NC(=O)[C@H](CC(C)C)NC(=O)[C@H](Cc1ccccc1)NC(=O)[C@@H](N)CO)C(=O)N[C@@H](C)C(N)=O [(S)-2-[(S)-2-((S)-2-Amino-3-hydroxy-propionylamino)-3-phenyl-propionylamino]-4-methyl-pentanoic acid [(S)-1-((S)-1-carbamoyl-ethylcarbamoyl)-3-methyl-butyl]-amide] (H-SFLLA-NH2) | 70
CC(C)C[C@H](NC(=O)[C@H](CC(C)C)NC(=O)[C@@H](NC(=O)[C@H](C)N)c1ccccc1)C(=O)N[C@@H](CCCNC(=N)N)C(N)=O [(S)-2-[(S)-2-((S)-2-Amino-propionylamino)-2-phenyl-acetylamino]-4-methyl-pentanoic acid [(S)-1-((S)-1-carbamoyl-4-guanidino-butylcarbamoyl)-3-methyl-butyl]-amide] (H-A[Phg]LLR-NH2) | > 800
CC(C)C[C@H](NC(=O)[C@H](CC(C)C)NC(=O)[C@H](Cc1ccc2ccccc2c1)NC(=O)[C@H](C)N)C(=O)N[C@@H](CCCNC(=N)N)C(N)=O [(S)-2-[(S)-2-((S)-2-Amino-propionylamino)-3-naphthalen-2-yl-propionylamino]-4-methyl-pentanoic acid [(S)-1-((S)-1-carbamoyl-4-guanidino-butylcarbamoyl)-3-methyl-butyl]-amide] (H-A[2Nal]LLR-NH2) | 19

The next molecules have a lower EC50 than those just listed; values first:

EC50 [µM] | SMILES
15 | CC(C)C[C@H](NC(=O)[C@H](Cc1ccccc1)NC(=O)[C@@H](N)CO)C(=O)N[C@@H](C)C(=O)N[C@@H](CCCNC(=N)N)C(N)=O [(S)-2-[(S)-2-((S)-2-Amino-3-hydroxy-propionylamino)-3-phenyl-propionylamino]-4-methyl-pentanoic acid [(S)-1-((S)-1-carbamoyl-4-guanidino-butylcarbamoyl)-ethyl]-amide] (H-SFLAR-NH2)
0.13 | CC(C)C[C@H](NC(=O)[C@H](CCCNC(=N)N)NC(=O)[C@H](Cc1ccc(F)cc1)NC(=O)[C@H](C)N)C(=O)N[C@@H](CCCNC(=N)N)C(N)=O [(S)-2-{(S)-2-[(S)-2-((S)-2-Amino-propionylamino)-3-(4-fluoro-phenyl)-propionylamino]-5-guanidino-pentanoylamino}-4-methyl-pentanoic acid ((S)-1-carbamoyl-4-guanidino-butyl)-amide] (H-A[Phe(4-F)]RLR-NH2)
0.5 | CC(C)C[C@H](NC(=O)[C@H](CC(C)C)NC(=O)[C@H](Cc1ccc(Cl)c(Cl)c1)NC(=O)[C@H](C)N)C(=O)N[C@@H](CCCNC(=N)N)C(N)=O [(S)-2-[(S)-2-((S)-2-Amino-propionylamino)-3-(3,4-dichloro-phenyl)-propionylamino]-4-methyl-pentanoic acid [(S)-1-((S)-1-carbamoyl-4-guanidino-butylcarbamoyl)-3-methyl-butyl]-amide] (H-A[Phe(3,4-Cl2)]LLR-NH2)
0.5 | CC(C)C[C@H](NC(=O)[C@H](CC(C)C)NC(=O)[C@H](Cc1ccccc1)NC(=O)[C@@H](N)CO)C(=O)N[C@@H](CCCN=C(N)N)C(=O)N[C@@H](CC(N)=O)C(=O)N1CCC[C@H]1C(N)=O [1-{(S)-2-[(S)-2-((S)-2-{(S)-2-[(S)-2-((S)-2-Amino-3-hydroxy-propionylamino)-3-phenyl-propionylamino]-4-methyl-pentanoylamino}-4-methyl-pentanoylamino)-5-guanidino-pentanoylamino]-3-carbamoyl-propionyl}-pyrrolidine-2-carboxylic acid amide] (H-SFLLRNP-NH2)
1 | CC(C)C[C@H](NC(=O)[C@H](CC(C)C)NC(=O)[C@H](Cc1ccccc1)NC(=O)[C@@H](N)CO)C(=O)N[C@@H](CCCNC(=N)N)C(N)=O [(S)-2-[(S)-2-((S)-2-Amino-3-hydroxy-propionylamino)-3-phenyl-propionylamino]-4-methyl-pentanoic acid [(S)-1-((S)-1-carbamoyl-4-guanidino-butylcarbamoyl)-3-methyl-butyl]-amide]
1.3 | CC(C)C[C@H](NC(=O)[C@H](C)NC(=O)[C@H](Cc1ccccc1)NC(=O)[C@@H](N)CO)C(=O)N[C@@H](CCCNC(=N)N)C(N)=O [(S)-2-{(S)-2-[(S)-2-((S)-2-Amino-3-hydroxy-propionylamino)-3-phenyl-propionylamino]-propionylamino}-4-methyl-pentanoic acid ((S)-1-carbamoyl-4-guanidino-butyl)-amide] (H-SFALR-NH2)
0.4 | CC(C)C[C@H](NC(=O)[C@H](Cc1ccccc1)NC(=O)[C@H](C)N)C(=O)N[C@@H](CC1CCCCC1)C(=O)N[C@@H](CCCNC(=N)N)C(N)=O [(S)-2-[(S)-2-((S)-2-Amino-propionylamino)-3-phenyl-propionylamino]-4-methyl-pentanoic acid [(S)-1-((S)-1-carbamoyl-4-guanidino-butylcarbamoyl)-2-cyclohexyl-ethyl]-amide] (H-AFL[Cha]R-NH2)
